{
  "source": "patent US20180064662A1",
  "about": "(THE GENERAL HOSPITAL CORPORATION, priority 2015, published 2018)",
  "key": {"[1]": {"test_system": "MCA-IV tumors", "assay": "MCA-IV breast cancer in lean and obese mice, anti-VEGF therapy", "type": "in vivo, mouse"}, "[2]": {"test_system": "human pancreatic cancers", "assay": "HA and collagen-I staining of human PDAC surgical samples, patients with or without metformin", "type": "in vivo", "from_the_text": "Human samples of pancreatic cancer were obtained from the Massachusetts General Hospital tissue repository. Written informed consent from the donor or the next of kin was obtained for the use of these samples for research purposes. Tumors selected received no prior chemotherapy or radiation therapy before the surgical specimen was collected at the time of tumor resection. A total of 28 samples were randomly selected from this subset of samples. Body mass index was obtained for the respective sample. […] Paraffin sections were stained for collagen-I and HA as described below. Images were acquired using confocal microscopy and quantified using Matlab. Data were analyzed anonymously.\nFor analysis of frozen sections of mouse tumor tissues, the tumors were excised and frozen in optimal cutting temperature compound (Tissue-Tek). Transverse tumor sections, 10 μm thick, were immunostained with specific antibodies. To obtain mosaic images of tumor sections, an Olympus FV1000 confocal laser-scanning microscope was used. A 10× air objective acquired 1260-μm square tiles, and an automated stage scanned throughout the entire cross-section of tumor tissue. The imaged tiles were stitched into a final mosaic image using Olympus software. Antigen expression was quantified by measuring the area occupied by the stain of interest normalized by the area of DAPI-stained nuclei (i.e., unit less), and analyzed using a custom algorithm in MATLAB (The MathWorks). Identical settings and thresholds for analysis were used for all tumors. Antibodies used for immunofluorescence were the following: Collagen-I [LF-68 antibody, 1:50 dilution, provided by Dr Larry Fisher (NIDCR)]; Hyluronan (biotinylated hyaluronan proteoglycan fragment, 385911, Calbiochem, 1:200 dilution); αSMA (C6198 antibody, Sigma, 1:500 dilution); and F4/80 (MCA497A488 antibody, ABDserotec, 1:200 dilution). Cy3-, Cy5- or FITC-conjugated secondary antibodies were used for the detection of signals by confocal microscopy. Slides were counterstained with DAPI for nuclear staining."}, "[3]": {"test_system": "macrophage viability", "assay": "MTT viability assay on macrophages", "type": "cell-based, mouse", "conditions": "48 h"}, "[4]": {"test_system": "RAW 264.7 (mouse leukemic monocyte-macrophages)", "assay": "RAW 264.7 macrophages treated with metformin in vitro (qPCR, Western blot)", "type": "cell-based", "method": "Following treatment, cells were collected for RNA and protein extraction in order to perform subsequent analysis of gene expression of cytokines and polarization markers, and for analysis of signaling and metabolic pathways. […] Cells were collected for protein extraction for analysis of the activation of fibrosis-related pathways. […] The cells were fixed with 4% paraformaldehyde and blocked with 5% normal donkey serum for 1 h. They were incubated with the designated primary antibodies overnight at 4° C. then for 2 h with the appropriate secondary antibodies at RT. PBS was used for all washes and the stained samples were mounted with Prolong Gold with DAPI. Images were acquired using a confocal microscope. The antibodies used and image acquisition settings are described below. Both cell types were grown in Dulbecco's modified Eagle's medium (Sigma, St. Louis, Mo.) supplemented with 5% (v/v) heat inactivated fetal bovine serum (FBS; Sigma), 100 units/ml penicillin and streptomycin. Cells were cultured at 37° C. in a humidified atmosphere including 5% CO2.\nImmediately following excision, tumor tissue was snap frozen and stored in liquid nitrogen. Total RNA was extracted and relative gene expression for macrophage M1/M2 markers was determined using a Sybr-green based standard protocol. In addition, total RNA was extracted and relative gene expression was determined using RT2 Profiler PCR Arrays system (Qiagen) on a Stratagene Mx3000P QPCR System using pre-made pathway-focused arrays (“Fibrosis”-Cat. Number: PAMM011Z; “Epithelial to Mesenchymal Transition (EMT)”-Cat. Number: PAMM090Z; “TGF-β signaling targets”-PAMM235Z; “Extracellular Matrix & Adhesion Molecules”-Cat. Number: PAMM013Z; and “Common cytokines ”-Cat. Number: PAMM021Z).\nEach tumor sample was homogenized directly in lysis buffer for protein extraction. 20 ug of denatured protein per sample was loaded on 7%, 10% and 12% SDS-polyacrylamide gels. Antibodies used: phospho-p38 MAPKT^180/Y182 and p38; phospho-JNK (SAPK/JNK)^Thr183/Tyr185 and JNK; phospho-AKT^Ser473 and AKT, phospho-ERK(p44/42 MAPK)^T202/Y204 and ERK; phospho-NF-κB^Ser536 and NK-κB; p65^Ser536; phospho-Smad2^Ser465/467 and Smad2; phospho-IGF-I Receptor β^Tyr1135 and IGF; Phospho-IRS-1^Ser612 and IRS; IR; phpspho-stat3^Tyr705 and stat3; Phospho-AMPKα^Thr172 and Ampkα; phospho-Ampkβ^Ser108 and Ampk; phospho-ACC^Ser79 and ACC; Phospho-PDGF Receptor β^Tyr751 and PDGF Receptor β and snail, c-cadherin and vimentin, TGF-β, β-catenin, twist, LC3B. […] Quantification of protein expression relative to total receptor or β-actin was obtained using Image J software."}},
  "data": [
    {"smiles": "CN(C)C(=N)N=C(N)N", "note": "[metformin, 3-(diaminomethylidene)-1,1-dimethylguanidine]", "values": [
      {"measurement": "FGF-2 gene and protein expression, downstream signaling", "setting": "[1]; obese animals treated with anti-VEGF", "result": "decreases"},
      {"measurement": "vessel density", "setting": "[1]; obese animals treated with anti-VEGF, metformin", "result": "decreases"},
      {"measurement": "tumor growth response to anti-VEGF", "setting": "[1]; obese setting, metformin", "result": "improved tumor growth response to anti-VEGF"},
      {"measurement": "collagen-I expression", "setting": "[2]; either body weight group", "result": "no impact"},
      {"measurement": "levels of HA lower than in patients not taking metformin", "setting": "[2]; overweight or obese patients, chemo/radiotherapy naive PDAC surgical samples", "result": 30, "unit": "%"},
      {"measurement": "HA levels", "setting": "[2]; patients of normal weight", "result": "no difference"},
      {"measurement": "doses at which metformin reduces macrophage viability", "setting": "[3]", "result": "> 0.2", "unit": "mM"},
      {"measurement": "doses at which metformin reduces macrophage viability", "setting": "[3]; listed as Metformin", "result": "≥ 0.4", "unit": "mM"},
      {"measurement": "activation of AMPKα and ACC in macrophages", "setting": "[4]; ACC evident only in serum added media", "result": "activation of AMPKα"},
      {"measurement": "activation of STAT3, JNK, AKT and p38 in macrophages", "setting": "[4]; concentrations lower than 0.2 mM, Western blot", "result": "reduced activation"},
      {"measurement": "gene expression of M2 markers such as Arg-1 and IL-10", "setting": "[4]; metformin 0.05 mM, 48 h", "result": "reduced M2 markers"},
      {"measurement": "gene expression of M1 and M2 markers", "setting": "[4]; metformin at doses higher than 0.2 mM", "result": "reduced both M1 and M2 markers"}
    ]}
  ]
}
